Article PMC4215638, “J-147 a Novel Hydrazide Lead Compound to Treat Neurodegeneration: CeeTox™ Safety and Genotoxicity Analysis” (Journal of neurology & neurophysiology, 2013)

Experiments:
Type in all cases: cell-based
[1] = test system: rat hepatoma (H4IIE) cell line; test: CeeTox cell mass (cell number), propidium iodide fluorescence; conditions: H4IIE cells; for Cell Number TC50: 24hour analysis endpoint, cell number (or mass)
Procedure: (§1) All Ceetox assays utilizing the rat hepatoma (H4IIE) cell line as the test system were conducted by CeeTox Inc Kalamazoo, MI. Ceetox assays are described in detail by McKim and Lapchak and according to a Standard Operating Procedure (SOP).
(§2) Rat hepatoma derived H4IIE cells were used as the test system because the cell have a rapid doubling time in culture (i.e. 22 hours). The culture medium used for these cells was Eagles Minimum Essential Medium (MEM) with 10% bovine serum and 10% calf serum (Invitrogen). H4IIE cells were seeded into 96-well plates and allowed to equilibrate for approximately 48 hr before drug assay to allow cells to move into a stable growth phase prior to treatment. Following the equilibration period the cells were exposed to J-147 at concentrations of 1–300 μM. Three to 7 replicates were done for each assay to construct concentration-response curves. Solubility was determined by Nephalometry techniques immediately after dosing and prior to harvesting the cells at 6 or 24 hr. Following the incubation period, cells or their supernatant (culture medium) were analyzed for changes in cell proliferation (cell mass), membrane leakage, mitochondrial function, oxidative stress, and apoptosis. The resultant exposure concentration response curves were graphed and analyzed for determining the concentration that produced a half maximal response or TC50 [28, 30].
Cell mass in each well was measured with a modified propidium iodide (PI), a specific nucleic acid binding dye that fluoresces when intercalated within the nucleic acids. The 15nm shift enhances PI fluorescence approximately 20 times while the excitation maxima are shifted 30–40nm. Triton-X-100 was used to permeabilize the H4IIE cells thereby allowing the PI access to intracellular RNA and DNA. Fluorescence was measured using a Packard Fusion plate reader at 540 nm excitation and 610 nm emission. Data is collected as relative fluorescent units (RFU) and expressed as percent change relative to control;

[2] = test system: rat hepatoma (H4IIE) cell line; test: CeeTox cellular ATP content, luciferin/luciferase; conditions: H4IIE cells, 24-hr exposure
Procedure: as §1, §2
Adenosine triphosphate (ATP) content was determined using a modification of a standard luciferin/luciferase luminescence assay based on a reaction between ATP + D-luciferin + oxygen catalyzed by luciferase to yield Oxyluciferin + AMP + PPi + CO2 + light. The emitted light is proportional to the amount of ATP present. […] Plates were analyzed immediately or stored at −20°C until needed. […] ATP was quantified by adding ATP substrate solution and then reading luminescence on a Packard Fusion Luminescence reader. […] Background corrected luminescence was used to determine percent change relative to controls by dividing treated values by control values and multiplying by 100.

[3] = test system: rat hepatoma (H4IIE) cell line; test: Intracellular glutathione (GSH) levels; conditions: H4IIE cells; for Percent Change in Total GSH: decrease indicated by (−), increase by (+)
Procedure: as §2
Intracellular glutathione levels were determined as described previously. Briefly, the sulfhydryl group of GSH reacts with DTNB (5,5′-dithio-bis-2-nitrobenzoic acid, Ellman’s reagent) and produces a yellow colored 5-thio-2-nitrobenzoic acid (TNB). The mixed disulfide, GSTNB (between GSH and TNB) that is concomitantly produced, is reduced by glutathione reductase to recycle the GSH and produce more TNB. The rate of TNB production is directly proportional to the concentration of GSH in the sample. Measurement of the absorbance of TNB at 405 or 412 nm provides an accurate estimation of GSH in the sample. At the end of the exposure period, the medium was removed from the cells and metaphosphoric acid (MPA) was added to each well. Plates were then shaken for 5 min at room temperature and stored at −20°C until needed. The sample plates were thawed just prior to analysis and centrifuged at > 2000 × g for 2 min. Sample aliquots were removed and transferred to a clean 96-well plate along with appropriate standard curve controls. Sample pH was neutralized just prior to analysis and each well received an aliquot of PBS reaction buffer containing Ellman’s reagent, NADPH, and glutathione reductase. The plates were shaken for 15–30 min at room temperature and glutathione content was determined colorimetrically with a Packard Fusion reader at 415 nm. The assay is based on the concept that all GSH is oxidized to GSSG by DTNB reagent. Two molecules of GSH are required to make one molecule of GSSG (oxidized glutathione). Total GSH was determined by reducing GSSG to 2GSH with glutathione reductase. A standard curve was prepared with oxidized glutathione (GSSG) over a range of concentrations. These concentrations are then converted to glutathione equivalents (GSX) essentially by multiplying the GSSG standard concentrations by 2. The amount of GSX expressed as pmoles/well was determined using the standard curve and regression analysis and are expressed as percent of control;

[4] = test system: rat hepatoma (H4IIE) cell line; test: Lipid peroxidation measured as 8-isoprostane ELISA; parameters: key to Membrane Lipid Peroxidation: 0=No Change; 1=Modest increase with maximum values<15 pg/mL; 2=Concentration related increase with maximum values>15 pg/mL; 3=Concentration related increase with a maximum value>30 pg/mL; conditions: H4IIE cells; for Membrane Lipid Peroxidation: 8-isoprostane score
Procedure: as §2
8-ISO levels were determined using an ELISA (Cayman Chemical Inc). 8-ISO is a member of a family of eicosanoids produced nonenzymatically by random oxidation of tissue phospholipids by oxygen radicals. Therefore, an increase in 8-ISO is an indirect measure of increased lipid peroxidation. At the end of the exposure period, plates were either analyzed immediately or stored at −80°C until needed for analysis. Color development, which is […] proportional to the amount of 8-ISO present in the sample, was read on a Packard Fusion or equivalent plate reader at 415 nm. Background absorbance produced from Ellman’s reagent is subtracted from all wells. Non-specific binding is subtracted from the maximum binding wells to give a corrected maximum binding expressed as Bo. The percent of bound (B) relative to maximum binding capacity (Bo) for all unknown samples and for standards was determined an expressed as (%B/Bo). The %B/Bo for standards was plotted against the log of 8-ISO added to yield the final standard curve. This curve was used to convert %B/Bo to pg 8-ISO/mL of sample.

SMILES	Cell Number TC50 [1]	ATP TC50 [2]	Total GSH TC50 [3]	Percent Change in Total GSH [3]	Membrane Lipid Peroxidation [4]	Concentration range with decrease in cell proliferation ([1]; prior to effects on other markers, in the absence of cell death)	Effect on 8-isoprostane [4]
C=C(C)[C@H]1Cc2c(ccc3c2O[C@@H]2COc4cc(OC)c(OC)cc4[C@@H]2C3=O)O1 [Rotenone, rotenone]	40 nM	50 nM	300 nM	−100.0%	0		
COc1cccc(/C=N/N(C(=O)C(F)(F)F)c2ccc(C)cc2C)c1 [J-147, (E)-N-(2,4-Dimethylphenyl)-2,2,2-trifluoro-N′-(3-methoxybenzylidene) acetohydrazide]	293000 nM	210000 nM	217000 nM	−84.9%	0	20 to 100 µM	did not have any effect
CC[C@@]1(O)C(=O)OCc2c1cc1n(c2=O)Cc2cc3ccccc3nc2-1 [Camptothecin, camptothecin]	600 nM	300 nM	3900 nM	−64.5%	1 (1=Modest increase with maximum values<15 pg/mL)		
